Results on seven compounds are retold here after patent publication US9434719B2, “3-pyrimidin-4-yl-oxazolidin-2-ones as inhibitors of mutant IDH” (NOVARTIS AG, priority 2013, dated 2016).

Structures can show the parent of a compound that is named as a salt.

Holding throughout (format): in vitro ADME
The nature of data set [1]: Metabolic stability in liver microsomes, Method II, rat. To be noted: 1 μM test compound, NADPH + UDPGA. (In general: Liver microsomes are vesicles of endoplasmic reticulum, rich in cytochrome P450 enzymes.)
Procedure: The in vitro metabolic stability assay was performed in a 96-deep-well plate with incubation at 37° C. 10 mM DMSO stock solution of the test compound was diluted 1:20 in acetonitrile, followed by an additional 1:10 dilution in 100 mM potassium phosphate buffer (KPi) to yield a final reaction concentration of 1 μM. […] 290 μL of cofactor solution (1.7 mM NADPH, 1.7 mM UDPGA, 3.4 mM MgCl in 100 mM KPi) was added to 200 μL of microsomal protein for a final volume of 490 μL. The reaction was initiated by adding 10 μL of the 50 μM test solution to 490 μL of microsomal protein for a final volume 500 μL enzyme-compound mixture.
UPLC mobile phase A: 0.25% formic acid in 5% methanol; mobile phase B: 0.25% formic acid in 95% water.
A short description of data set [2]: Metabolic stability in liver microsomes, Method II, mouse. To be noted: NADPH + UDPGA; for microsomal CLint: 1 μM test compound. Here is the method:
(§1) Determination of Metabolic Stability in Liver Microsomes—Method II
(§2) The in vitro metabolic stability assay was performed in a 96-deep-well plate with incubation at 37° C. 10 mM DMSO stock solution of the test compound was diluted 1:20 in acetonitrile, followed by an additional 1:10 dilution in 100 mM potassium phosphate buffer (KPi) to yield a final reaction concentration of 1 μM. Immediately prior to the start of the experiment, respective animal or human liver microsomes (male Sprague-dawley rat, male CD-1 mouse, or pooled human liver microsomes) were diluted in 100 mM KPi to 1.25 mg/mL liver microsomal protein. 290 μL of cofactor solution (1.7 mM NADPH, 1.7 mM UDPGA, 3.4 mM MgCl in 100 mM KPi) was added to 200 μL of microsomal protein for a final volume of 490 μL. The reaction was initiated by adding 10 μL of the 50 μM test solution to 490 μL of microsomal protein for a final volume 500 μL enzyme-compound mixture.
(§3) At 0, 5, 15 and 30 minute time points in the reaction, reaction aliquots (75 μL) were removed and the reactions were terminated by the addition of 50:50 acetonitrile/methanol solution (75 μL) containing a mass spectrometry internal standard (0.5 μM glyburide). The samples were centrifuged at 4000 RPM for 10 minutes. Supernatants (15 μL aliquots) were transferred to a new plate where each well contains 90 μL of deionized water. The supernatants solution were analyzed by UPLC/MS/MS for quantitation of parent remaining compound under multiple reactions monitoring mode (MRM) in positive mode. The percentage of compound remaining, relative to 0 minutes, was used to estimate in vitro elimination-rate constant (k) which was used to calculate in vitro metabolic clearance rates.
(§4) Analysis of the samples was performed on an ultra-performance liquid chromatography-tandem mass spectrometry (UPLC/MS/MS) system consisting of an AB Sciex Qtrap 5500 mass spectrometer, AB Sciex Turbo V ion source, Waters Acquity Sample Organizer, Waters Acquity Column manager, Waters Acquity Sample manager, and a Waters Acquity Binary Solvent Manager. Chromatographic separation of analyte and internal standard was achieved using a reverse phase C-18 column (50×2.1 mm, 1.7 μm, Acquity UPLC BEH C-18) with the following UPLC mobile phases and elution gradient: […]
(§5) UPLC mobile phase A: 0.25% formic acid in 5% methanol; mobile phase B: 0.25% formic acid in […].
(§6) The injection volume was 5 μL. Compounds were detected using Analyst 1.5.1 software which collects intensity data for all fragments related to the molecular weight of the test compound. After collection of the raw data, the software identifies and integrates the peak of the strongest intensity.
(§7) Each microsomal elimination rate, k, was based on a 4-point elimination curve tested in duplicates. LC-MS/MS raw data for a reaction plate was returned as integrated analyte peak areas for the test compound and internal standard used in the quench solution for the reaction to enable use of analyte:internal standard peak area ratios (PARs) for all data comparisons. The reaction time point (e.g. 0, 5, 15 and 30 minutes) was plotted versus the natural logarithm of percent test compound remaining relative to 0 minutes (based on relative PAR). The slope of this clearance plot, k, was used to calculate the in vitro half-life.
(§8) [formula] The intrinsic clearance value, CLint (expressed as μL/min/mg microsomal protein) calculation is shown below:
(§9) [formula] Where V=the incubation volume (mL) and M=the microsomal protein content in the incubation (mg)

Data set [3] in a line: Metabolic stability in liver microsomes, Method II, human. To be noted: 1 μM test compound, NADPH + UDPGA. The method, then:
as §1, §2, §3, §4, §5, §6, §7, §8, §9

By microsomal CLint is commonly meant a measure of how fast metabolising enzymes remove a compound, apart from limits set by blood flow. With `C[C@H](Nc1nccc(N2C(=O)OC[C@@H]2[C@H](C)F)n1)c1cn(-c2ccc(Cl)cc2F)cn1` [476 as TFA salt], the intrinsic clearance (microsomal CLint) is 344 µL/min/mg in data set [1], 111 µL/min/mg in data set [2] and 41.4 µL/min/mg in data set [3].
Taken in the same sequence, the figures for `C[C@H](Nc1ncc(F)c(N2C(=O)OC[C@@H]2[C@H](C)F)n1)c1cn(-c2ccc(F)cc2F)cn1` [479 as TFA salt] were 173 µL/min/mg, 116 µL/min/mg and 11.9 µL/min/mg.
`C[C@H](Nc1ncc(F)c(N2C(=O)OC[C@@H]2[C@H](C)F)n1)c1cn(-c2ccc(Cl)cc2F)cn1` [Example 477, (R)-3-(2-(((S)-1-(1-(4-chloro-2-fluorophenyl)-1H-imidazol-4-yl)ethyl)amino)-5-fluoropyrimidin-4-yl)-4-((S)-1-fluoroethyl)oxazolidin-2-one]: the microsomal CLint at 1 μM in data set [1] (male, Sprague-Dawley) came out at 438 µL/min/mg; in data set [2] (male, CD-1, 1 μM test compound), 167 µL/min/mg; in data set [3] (pooled liver microsomes), 30.4 µL/min/mg.
As for `C[C@H](Nc1nccc(N2C(=O)OC[C@@H]2CF)n1)c1cn(-c2ccc(F)cc2)cn1` [471 as TFA salt], the microsomal CLint in data set [1] was less than 7.7 µL/min/mg; in data set [2], 14.8 µL/min/mg; in data set [3] it was less than 7.7 µL/min/mg.
With `C[C@H](Nc1nccc(N2C(=O)OC[C@@H]2[C@H](C)F)n1)c1cn(-c2ccc(F)cc2F)cn1` [478 as TFA salt], the intrinsic clearance (microsomal CLint) amounted to 219 µL/min/mg in data set [1], 55.3 µL/min/mg in data set [2] and 10.9 µL/min/mg in data set [3].
Take `C[C@H](Nc1ncc(F)c(N2C(=O)OC[C@@H]2CF)n1)c1cn(-c2ccc(F)c(Cl)c2)cn1` [472 as TFA salt]: the microsomal CLint in data set [1] is 12 µL/min/mg; in data set [2], 45.6 µL/min/mg; in data set [3] it was less than 7.7 µL/min/mg.
Taken in the same sequence, the figures for `C[C@H](Nc1nccc(N2C(=O)OC[C@@H]2CF)n1)c1cn(-c2ccc(F)c(F)c2)cn1` [474 as TFA salt] were 24.8 µL/min/mg, less than 7.7 µL/min/mg and less than 7.7 µL/min/mg.
